Reference: patent US20150105252A1, “SUBSTITUTED PYRAZOLES AS HERBICIDES” (E I DU PONT DE NEMOURS AND COMPANY, priority 2013, published 2015)

Key:
nutsedge, yellow [1] = test: Test C preemergence; type: in vivo, Cyperus esculentus
Method in brief: (§1)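 Seeds were sown in a loam soil–sand blend and sprayed preemergence with compounds formulated in a non-phytotoxic solvent mixture containing surfactant. Postemergence plants, grown in peat/vermiculite medium to 2–18 cm (1- to 4-leaf stage), received the same formulation. After 13 to 15 days in a greenhouse, injury was rated visually against controls (0 = no effect, 100 = complete control).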

kochia = test: Test C postemergence; type: in vivo, Kochia scoparia; settings: for Plant response rating (scale of 0 to 100 where 0 is no effect and 100 is complete control), Kochia: 31 g ai/ha, visually evaluated after 13 to 15 days; for Kochia plant response rating / Plant response rating, Kochia: postemergence; for Kochia plant response rating: 62 g ai/ha, scale 0 to 100
Method in brief: as §1

ducksalad = test: Test B flood; type: in vivo, Heteranthera limosa; settings: 250 g ai/ha, visual rating on 0 to 100 scale (0 no effect, 100 complete control), 13 to 15 days
Method in brief: (§2)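 Plants were grown to the 2-leaf stage, then pots were flooded to 3 cm above the soil and compounds were applied directly into the paddy water. Water depth was held for the whole test; after 13 to 15 days in a greenhouse, injury was visually rated against untreated controls (0 = no effect, 100 = complete control).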

johnsongrass = test: Test C postemergence; type: in vivo, Sorghum halepense; settings: for Plant response rating (scale of 0 to 100 where 0 is no effect and 100 is complete control), Johnsongrass: 31 g ai/ha, visually evaluated after 13 to 15 days
Method in brief: as §1

velvetleaf = test: Test C preemergence; type: in vivo, Abutilon theophrasti
Method in brief: as §1

rice = test: Test B flood; type: in vivo, Oryza sativa; settings: 250 g ai/ha, visual rating on 0 to 100 scale (0 no effect, 100 complete control), 13 to 15 days
Method in brief: as §2

waterhemp = test: Test C preemergence; type: in vivo, Amaranthus rudis
Method in brief: as §1

nutsedge, yellow [2] = test: Test C postemergence; type: in vivo, Cyperus esculentus; settings: for Plant response rating (scale of 0 to 100 where 0 is no effect and 100 is complete control), Nutsedge, Yellow: 31 g ai/ha, visually evaluated after 13 to 15 days; for Nutsedge, Yellow plant response rating / Plant response rating, Nutsedge, Yellow: postemergence; for Nutsedge, Yellow plant response rating: 62 g ai/ha, scale 0 to 100
Method in brief: as §1

crabgrass, large = test: Test A postemergence; type: in vivo, Digitaria sanguinalis
Method in brief: (§3)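 Greenhouse test in loam soil/sand blend; compounds formulated in non-phytotoxic solvent with surfactant, applied as preemergence directed soil spray or postemergence to plants 2–10 cm tall at one- to two-leaf stage. Injury rated visually versus untreated controls after approximately 10 days on a 0 (no effect) to 100 (complete control) scale.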

barnyardgrass = test: Test A preemergence; type: in vivo, Echinochloa crus-galli
Method in brief: as §3

soybean = test: Test C postemergence; type: in vivo, Glycine max; settings: for Plant response rating (scale of 0 to 100 where 0 is no effect and 100 is complete control), Soybean: 31 g ai/ha, visually evaluated after 13 to 15 days; for Soybean plant response rating / Plant response rating, Soybean: postemergence; for Soybean plant response rating: 62 g ai/ha, scale 0 to 100
Method in brief: as §1

morningglory = test: Test C preemergence; type: in vivo, Ipomoea coccinea; settings: preemergence
Method in brief: as §1

lambsquarters = test: Test C preemergence; type: in vivo, Chenopodium album; settings: preemergence
Method in brief: as §1

[3] = Preemergence, 16 g ai/ha, scale 0 to 100
[4] = preemergence, 31 g ai/ha, scale 0 to 100 (0 no effect, 100 complete control), 13 to 15 days
[5] = preemergence, 62 g ai/ha, 13 to 15 days, scale 0 to 100, 0 = no effect, 100 = complete control
[6] = preemergence, 125 g ai/ha, scale 0 to 100, 0 is no effect, 100 is complete control
[7] = 125 g ai/ha, scale 0 to 100, 0 no effect, 100 complete control
[8] = postemergence, 125 g ai/ha, scale 0 to 100, 0 no effect, 100 complete control
[9] = Postemergence, 500 g ai/ha, visual rating after approx. 10 days, 0 to 100 scale (0 no effect, 100 complete control)
[10] = postemergence, 125 g ai/ha, about 10 days, visual rating on 0 to 100 scale (0 no effect, 100 complete control)
[11] = preemergence, 125 g ai/ha, visual injury, 0 to 100 scale, approx. 10 days
[12] = preemergence, 62 g ai/ha, scale 0 to 100 (0 no effect, 100 complete control), 13 to 15 days
[13] = 250 g ai/ha, scale 0 to 100 (0 no effect, 100 complete control)
[14] = preemergence, 31 g ai/ha, visual rating, scale 0 to 100 (0 no effect, 100 complete control), 13 to 15 days
[15] = preemergence, 500 g ai/ha, visual injury after approx. 10 days, 0 to 100 scale (0 no effect, 100 complete control)
[16] = preemergence, 125 g ai/ha, 13 to 15 days, scale 0 to 100, 0 = no effect, 100 = complete control
[17] = preemergence, 250 g ai/ha, scale 0 to 100, 0 is no effect, 100 is complete control
[18] = 31 g ai/ha, visual rating, scale 0 to 100 (0 no effect, 100 complete control), 13 to 15 days
[19] = 62 g ai/ha, scale 0 to 100 (0 no effect, 100 complete control), 13 to 15 days
[20] = 125 g ai/ha, 13 to 15 days, scale 0 to 100, 0 = no effect, 100 = complete control
[21] = 250 g ai/ha, scale 0 to 100, 0 is no effect, 100 is complete control

CCONC(=O)c1cc(CC)n(Cc2ccnc(C(F)(F)F)c2)n1 [Compound 77]
Plant response rating, Nutsedge, Yellow (nutsedge, yellow [1]; [3]): 10 | Nutsedge, Yellow plant response rating (nutsedge, yellow [1]; [4]): 10 | Plant response rating, Nutsedge, Yellow (nutsedge, yellow [1]; [5]): 25 | Nutsedge, Yellow plant response rating (nutsedge, yellow [1]; [6]): 60 | Plant response rating (scale of 0 to 100), Kochia (kochia; Postemergence, 16 g ai/ha): 40 | Plant response rating (scale of 0 to 100 where 0 is no effect and 100 is complete control), Kochia (kochia; Postemergence): 40 | Kochia plant response rating (kochia): 45 | Plant response rating, Kochia (kochia; [7]): 70 | Plant response rating, Ducksalad (ducksalad): 80 | Plant response rating (scale of 0 to 100), Johnsongrass (johnsongrass; Postemergence, 16 g ai/ha): 5 | Plant response rating (scale of 0 to 100 where 0 is no effect and 100 is complete control), Johnsongrass (johnsongrass; Postemergence): 5 | Johnsongrass plant response rating (johnsongrass; postemergence, 62 g ai/ha, scale 0 to 100): 5 | Plant response rating, Johnsongrass (johnsongrass; [8]): 5 | Plant response rating, Velvetleaf (velvetleaf; [3]): 30 | Velvetleaf plant response rating (velvetleaf; [4]): 35 | Plant response rating, Velvetleaf (velvetleaf; [5]): 60 | Velvetleaf plant response rating (velvetleaf; [6]): 100 | Plant response rating, Rice (rice): 20 | Plant response rating, Waterhemp (waterhemp; [3]): 70 | Waterhemp plant response rating (waterhemp; [4]): 98 | Plant response rating, Waterhemp (waterhemp; [5]): 98 | Waterhemp plant response rating (waterhemp; [6]): 100 | Plant response rating (scale of 0 to 100), Nutsedge, Yellow (nutsedge, yellow [2]; Postemergence, 16 g ai/ha): 0 | Plant response rating (scale of 0 to 100 where 0 is no effect and 100 is complete control), Nutsedge, Yellow (nutsedge, yellow [2]; Postemergence): 5 | Nutsedge, Yellow plant response rating (nutsedge, yellow [2]): 5 | Plant response rating, Nutsedge, Yellow (nutsedge, yellow [2]; [7]): 5 | Crabgrass, Large plant response rating (crabgrass, large; [9]): 100 | Crabgrass, Large plant response rating (crabgrass, large; [10]): 90 | Barnyardgrass plant response rating (barnyardgrass; Preemergence, 500 g ai/ha, 0 to 100 scale, 0 no effect, 100 complete control): 100 | Barnyardgrass plant response rating (barnyardgrass; [11]): 90 | Plant response rating (scale of 0 to 100), Soybean (soybean; Postemergence, 16 g ai/ha): 10 | Plant response rating (scale of 0 to 100 where 0 is no effect and 100 is complete control), Soybean (soybean; Postemergence): 10 | Soybean plant response rating (soybean): 25 | Plant response rating, Soybean (soybean; [7]): 35

CCc1cc(-c2ccc(C(F)(F)F)cc2)nn1Cc1ccnc(C(F)(F)F)c1 [Compound 110]
Plant response rating (scale of 0 to 100), Nutsedge, Yellow (nutsedge, yellow [1]; Preemergence, 250 g ai/ha): 5 | Nutsedge, Yellow plant response rating (nutsedge, yellow [1]; [12]): 5 | Nutsedge, Yellow plant response rating (nutsedge, yellow [1]; [6]): 5 | Plant response rating (scale of 0 to 100 where 0 is no effect and 100 is complete control), Kochia (kochia; Postemergence): 90 | Kochia plant response rating (kochia): 90 | Plant response rating, Kochia (kochia; [13]): 90 | Plant response rating, Kochia (kochia; [7]): 90 | Plant response rating, Ducksalad (ducksalad): 80 | Plant response rating (scale of 0 to 100 where 0 is no effect and 100 is complete control), Johnsongrass (johnsongrass; Postemergence): 40 | Plant response rating, Johnsongrass (johnsongrass; postemergence, 250 g ai/ha, scale 0 to 100 (0 no effect, 100 complete control)): 90 | Plant response rating, Johnsongrass (johnsongrass; [8]): 75 | Plant response rating (scale of 0 to 100), Velvetleaf (velvetleaf; Preemergence, 250 g ai/ha): 75 | Velvetleaf plant response rating (velvetleaf; [14]): 50 | Velvetleaf plant response rating (velvetleaf; [12]): 50 | Velvetleaf plant response rating (velvetleaf; [6]): 70 | Plant response rating, Rice (rice): 35 | Plant response rating (scale of 0 to 100), Waterhemp (waterhemp; Preemergence, 250 g ai/ha): 100 | Waterhemp plant response rating (waterhemp; [14]): 100 | Waterhemp plant response rating (waterhemp; [12]): 100 | Waterhemp plant response rating (waterhemp; [6]): 100 | Plant response rating (scale of 0 to 100 where 0 is no effect and 100 is complete control), Nutsedge, Yellow (nutsedge, yellow [2]; Postemergence): 5 | Nutsedge, Yellow plant response rating (nutsedge, yellow [2]): 10 | Plant response rating, Nutsedge, Yellow (nutsedge, yellow [2]; [13]): 10 | Plant response rating, Nutsedge, Yellow (nutsedge, yellow [2]; [7]): 10 | Crabgrass, Large plant response rating (crabgrass, large; [9]): 100 | Crabgrass, Large plant response rating (crabgrass, large; [10]): 70 | Barnyardgrass plant response rating (barnyardgrass; [11]): 100 | Barnyardgrass plant response rating (barnyardgrass; [15]): 100 | Plant response rating (scale of 0 to 100 where 0 is no effect and 100 is complete control), Soybean (soybean; Postemergence): 35 | Soybean plant response rating (soybean): 55 | Plant response rating, Soybean (soybean; [13]): 85 | Plant response rating, Soybean (soybean; [7]): 70

CCCc1cc(C(=O)NOC(C)C)nn1Cc1cc(C(F)(F)F)nn1C [Compound 203]
Nutsedge, Yellow plant response rating (nutsedge, yellow [1]; [14]): 5 | Nutsedge, Yellow plant response rating (nutsedge, yellow [1]; [12]): 35 | Plant response rating, Nutsedge, Yellow (nutsedge, yellow [1]; [16]): 85 | Nutsedge, Yellow plant response rating (nutsedge, yellow [1]; [17]): 90 | Morningglory plant response rating (morningglory; [18]): 30 | Morningglory plant response rating (morningglory; [19]): 95 | Plant response rating, Morningglory (morningglory; [20]): 85 | Morningglory plant response rating (morningglory; [21]): 100 | Plant response rating, Ducksalad (ducksalad): 95 | Lambsquarters plant response rating (lambsquarters; [18]): 75 | Lambsquarters plant response rating (lambsquarters; [19]): 100 | Plant response rating, Lambsquarters (lambsquarters; [20]): 100 | Lambsquarters plant response rating (lambsquarters; [21]): 100 | Velvetleaf plant response rating (velvetleaf; [14]): 30 | Velvetleaf plant response rating (velvetleaf; [12]): 98 | Plant response rating, Velvetleaf (velvetleaf; [16]): 100 | Velvetleaf plant response rating (velvetleaf; [17]): 100 | Plant response rating, Rice (rice): 0 | Waterhemp plant response rating (waterhemp; [14]): 85 | Waterhemp plant response rating (waterhemp; [12]): 95 | Plant response rating, Waterhemp (waterhemp; [16]): 100 | Waterhemp plant response rating (waterhemp; [17]): 100 | Crabgrass, Large plant response rating (crabgrass, large; Postemergence, 500 g ai/ha, 0 to 100 scale (0 no effect, 100 complete control)): 90 | Crabgrass, Large plant response rating (crabgrass, large; [10]): 70 | Barnyardgrass plant response rating (0 to 100 scale, 0 is no effect, 100 is complete control) (barnyardgrass; preemergence, 125 g ai/ha, visual injury approx. 10 days after treatment): 80 | Barnyardgrass plant response rating (barnyardgrass; [15]): 100
